Results taken from paper PMC3170524 (Physiological research / Academia Scientiarum Bohemoslovaca, 2010).
Where a chain is given by its changes, count along the chain named.

Experiments:
Assay in all cases: whole-cell patch clamp, peak current dose-response
Assay type in all cases: cell-based
rat P2X4R [1] = target: T1, rat P2X4R (Rattus norvegicus, UniProt P51577, C126A)
T1 sequence (P51577 1-388 C126A): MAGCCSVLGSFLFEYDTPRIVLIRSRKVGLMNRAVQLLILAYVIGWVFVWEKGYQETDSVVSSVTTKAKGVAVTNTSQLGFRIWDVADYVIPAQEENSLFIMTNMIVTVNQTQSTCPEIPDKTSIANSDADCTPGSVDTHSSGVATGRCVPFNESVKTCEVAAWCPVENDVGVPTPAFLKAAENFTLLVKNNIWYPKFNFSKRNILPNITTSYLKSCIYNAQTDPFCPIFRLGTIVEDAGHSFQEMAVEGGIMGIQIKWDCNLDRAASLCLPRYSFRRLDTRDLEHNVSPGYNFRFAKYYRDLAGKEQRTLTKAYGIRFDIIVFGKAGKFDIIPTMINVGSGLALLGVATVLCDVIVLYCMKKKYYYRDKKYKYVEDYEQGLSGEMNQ

rat P2X4R [2] = target: T2, rat P2X4R (Rattus norvegicus, UniProt P51577, C116A)
T2 sequence (P51577 1-388 C116A): T1 sequence (P51577 1-388 C126A) with C116A, A126C

rat P2X4R [3] = target: T3, rat P2X4R (Rattus norvegicus, UniProt P51577, C132A)
T3 sequence (P51577 1-388 C132A): T1 sequence (P51577 1-388 C126A) with A126C, C132A

rat P2X4R [4] = target: T4, rat P2X4R (Rattus norvegicus, UniProt P51577, C132T/C159T)
T4 sequence (P51577 1-388 C132T/C159T): T1 sequence (P51577 1-388 C126A) with A126C, C132T, C159T

rat P2X4R [5] = target: T5, rat P2X4R (Rattus norvegicus, UniProt P51577, C116T)
T5 sequence (P51577 1-388 C116T): T1 sequence (P51577 1-388 C126A) with C116T, A126C

rat P2X4R [6] = target: T6, rat P2X4R (Rattus norvegicus, UniProt P51577, C217R)
T6 sequence (P51577 1-388 C217R): T1 sequence (P51577 1-388 C126A) with A126C, C217R

rat P2X4R [7] = target: T7, rat P2X4R (Rattus norvegicus, UniProt P51577, C165T)
T7 sequence (P51577 1-388 C165T): T1 sequence (P51577 1-388 C126A) with A126C, C165T

EC50 (rat P2X4R [1]): 24 ± 5.6 µM
EC50 (rat P2X4R [2]): 27 ± 6.5 µM
EC50 (rat P2X4R [3]): 14 ± 4.1 µM
EC50 (rat P2X4R [4]): 5.3 ± 0.8 µM
EC50 (rat P2X4R [5]): 21 ± 4.1 µM
EC50 (rat P2X4R [6]): 9.2 ± 2.3 µM
EC50 (rat P2X4R [7]): 45 ± 3.8 µM
SMILES: Nc1ncnc2c1ncn2[C@@H]1O[C@H](COP(=O)(O)OP(=O)(O)OP(=O)(O)O)[C@@H](O)[C@H]1O [ATP]
